Measured values as given in ChEMBL document CHEMBL3596183, “Cytoprotective effects of hydrogen sulfide-releasing N-methyl-D-aspartate receptor antagonists are mediated by intracellular sulfane sulfur” (Medchemcomm, 2014).
pEC50: −log10 of the molar value. Activity calls are given as the source filed them. No cut-off for these calls is given here.

Columns and labels:
[1] = tested on: SH-SY5Y; test: Increase in H2S level in human SH-SY5Y cells at 20 uM after 3 hrs by HSip-1 probe-based fluorescence assay; assay type: functional, cell-based
[2] = biological target: Transient receptor potential cation channel subfamily A member 1 (Rattus norvegicus, UniProt Q6RI86); test: Activation of TRPA1 in rat astrocytes assessed as induction of Ca2+ influx by calcium green-1/acetoxymethyl ester-based fluorescence assay; assay type: cell-based
Transient receptor potential cation channel subfamily A member 1, sequence (Q6RI86 whole entry): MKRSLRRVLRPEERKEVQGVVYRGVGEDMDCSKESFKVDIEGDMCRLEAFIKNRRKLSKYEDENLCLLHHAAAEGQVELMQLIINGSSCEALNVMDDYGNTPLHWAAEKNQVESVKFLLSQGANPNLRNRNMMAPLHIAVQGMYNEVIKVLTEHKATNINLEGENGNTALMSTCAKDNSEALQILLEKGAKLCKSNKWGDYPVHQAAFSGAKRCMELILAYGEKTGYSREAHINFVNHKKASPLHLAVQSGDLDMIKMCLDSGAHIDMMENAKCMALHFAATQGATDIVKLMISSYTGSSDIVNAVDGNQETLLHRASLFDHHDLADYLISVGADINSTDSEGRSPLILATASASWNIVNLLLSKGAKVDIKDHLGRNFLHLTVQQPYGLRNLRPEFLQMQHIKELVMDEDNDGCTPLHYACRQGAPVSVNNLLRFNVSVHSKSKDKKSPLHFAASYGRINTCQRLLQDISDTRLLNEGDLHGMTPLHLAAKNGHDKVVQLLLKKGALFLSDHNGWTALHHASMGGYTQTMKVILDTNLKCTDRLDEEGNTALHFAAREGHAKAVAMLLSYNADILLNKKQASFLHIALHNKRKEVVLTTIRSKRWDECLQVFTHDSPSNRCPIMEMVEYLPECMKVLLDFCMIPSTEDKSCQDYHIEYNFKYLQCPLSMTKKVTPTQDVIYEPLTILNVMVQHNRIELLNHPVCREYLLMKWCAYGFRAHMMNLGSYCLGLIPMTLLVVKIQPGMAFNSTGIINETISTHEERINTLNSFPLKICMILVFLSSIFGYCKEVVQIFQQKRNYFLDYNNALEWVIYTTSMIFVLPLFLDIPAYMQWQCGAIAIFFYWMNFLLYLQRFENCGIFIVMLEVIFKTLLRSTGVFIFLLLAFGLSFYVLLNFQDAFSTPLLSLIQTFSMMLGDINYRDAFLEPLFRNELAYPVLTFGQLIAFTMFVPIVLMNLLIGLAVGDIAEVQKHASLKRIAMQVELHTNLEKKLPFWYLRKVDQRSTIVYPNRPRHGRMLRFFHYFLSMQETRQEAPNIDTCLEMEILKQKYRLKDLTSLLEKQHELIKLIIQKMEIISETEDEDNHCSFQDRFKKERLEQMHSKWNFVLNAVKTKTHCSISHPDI

Compound	Activity [1]	pEC50 [2]
O=C(NC12CC3CC(CC(C3)C1)C2)c1ccc(-c2cssc2=S)cc1	Active	
CC12CC3CC(C)(C1)CC(NC(=O)c1ccc(-c4cssc4=S)cc1)(C3)C2	Active	
S1SSSSSSS1 [SULFUR]		3.94
SSS		7.04
